Measurements as given in patent US7947733B2, “Phosphorylated pyrone analogs and methods” (Limerick BioPharma, priority 2007, dated 2011).

Assays:
AdenosineA1 = target: T1, AdenosineA1 (Homo sapiens, UniProt P30542); test: GTPγS functional assay; format: biochemical; conditions: 10 μM
T1 sequence (P30542 1-326): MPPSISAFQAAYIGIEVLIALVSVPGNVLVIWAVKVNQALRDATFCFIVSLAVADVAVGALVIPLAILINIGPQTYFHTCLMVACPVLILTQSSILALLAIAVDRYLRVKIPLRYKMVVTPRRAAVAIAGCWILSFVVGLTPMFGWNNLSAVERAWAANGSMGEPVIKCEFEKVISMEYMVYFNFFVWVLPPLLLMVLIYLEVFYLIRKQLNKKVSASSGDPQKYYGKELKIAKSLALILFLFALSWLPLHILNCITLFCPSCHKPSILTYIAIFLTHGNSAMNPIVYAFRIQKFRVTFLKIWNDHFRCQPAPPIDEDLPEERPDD
Protocol: (§1) The compound is additionally tested in AdenosineA1, AdrenergicA2A, DopamineD25, Histamine H1-, and μ-Opiate GTPγS functional assays using a concentration of 10 μM.

AdrenergicA2A = target: T2, AdrenergicA2A (Homo sapiens, UniProt P08913); test: GTPγS functional assay; format: biochemical; conditions: 10 μM; potentially inverse agonist
T2 sequence (P08913 1-465): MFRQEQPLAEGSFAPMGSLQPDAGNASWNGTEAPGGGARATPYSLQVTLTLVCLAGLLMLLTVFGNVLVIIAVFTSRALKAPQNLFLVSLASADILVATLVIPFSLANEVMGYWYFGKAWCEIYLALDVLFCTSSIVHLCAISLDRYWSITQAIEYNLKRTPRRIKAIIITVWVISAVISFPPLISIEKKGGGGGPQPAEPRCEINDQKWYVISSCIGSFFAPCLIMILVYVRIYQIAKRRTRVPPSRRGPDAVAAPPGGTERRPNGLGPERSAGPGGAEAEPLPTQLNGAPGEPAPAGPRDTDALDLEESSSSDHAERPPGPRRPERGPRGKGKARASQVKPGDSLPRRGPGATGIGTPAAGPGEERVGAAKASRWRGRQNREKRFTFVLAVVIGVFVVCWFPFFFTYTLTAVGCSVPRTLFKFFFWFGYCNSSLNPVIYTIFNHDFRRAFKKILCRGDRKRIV
Protocol: as §1

kidney of rats = test: Renal pathology in rats co-administered with quercetin-3′-O-phosphate and tacrolimus; format: in vivo, rat
Protocol: Tissue is removed from the kidney of rats treated with tacrolimus (Prograf®) at 0.5 mg/kg and inert vehicle, and from rats treated with tacrolimus (Prograf®) at 0.5 mg/kg and quercetin-3′-O-phosphate (Q-Phosphate) at 11 mg/kg, 28 mg/kg, and at 114 mg/kg for 25 days. […] The tissue from rats treated with Q-Phosphate and tacrolimus show no vacuoles.

[1] = Secondary toxicity screen, overall finding; conditions: 10 μM against 122 targets
Protocol: (§2) A secondary pharmacological screening of molecules of interest at a fixed concentration is often practiced in the pharmaceutical industry in order to evaluate the effect of the compound on secondary targets that could result in untoward toxicity in-vivo. These secondary screens are well known in the art and can be carried out by labs which specialize in these tests such as MDS-Panlabs and CEREP. A secondary toxicity screen is performed with Quercetin-3′-O-phosphate at a concentration of 10 μM against 122 targets in enzyme, radioligand binding, and cellular assays by MDS Pharma Services by methods well known in the art. Inhibition is found in only the following targets (percent inhibition at 10 μM in parentheses): ATPase, Na+/K+, Heart, Pig (65%), Nitric Oxide Synthase, Endothelial (eNOS) (72%), Protein Tyrosine Kinase, FGFR2 (94%), Protein Tyrosine Kinase, FGFR1(96%), Protein Tyrosine Kinase, Insulin Receptor (91%), Protein Tyrosine Kinase, (82%), Protein Tyrosine Kinase, ZA70 (ZAP-70) (74%), UDP Glucuronosyltransferase, UGT1A1 (52%), Adenosine A1 (50%), Adrenergic α2A (57%), Dopamine D47 (51%), Peripheral Benzodiazepine Receptor (PBR) (53%), Transporter, Monoamine rabbit (68%), Serotonin (5-Hydroxytryptamine) 5-HT1A (62%).

Dopamine D47 = test: Secondary toxicity screen (MDS Pharma Services), radioligand binding; conditions: 10 μM
Protocol: as §2

[2] = test system: Peripheral Benzodiazepine Receptor (PBR); test: as above; conditions: 10 μM
Protocol: as §2

[3] = test system: Transporter, Monoamine rabbit; test: as above; conditions: 10 μM
Protocol: as §2

[4] = test system: ATPase, Na+/K+, Heart, Pig; test: Secondary toxicity screen (MDS Pharma Services), enzyme assay; format: biochemical; conditions: 10 μM
Protocol: as §2

[5] = Stability of Quercetin-3′-O-phosphate in water; format: physicochemical; conditions: water at pH 8, 24 hours, ambient temperature
Protocol: Quercetin-3′-O-phosphate is dissolved in water at about pH 8.

[6] = Solubility of quercetin-3′-O-phosphate in water; format: physicochemical; conditions: about pH 8 (about 4 g in 50 mL)
Protocol: The resultant solid from concentration of the decantate is added acetonitrile (500 mL) followed by water (50 mL) then 1N hydrochloric acid (approx. 20 mL) until a pH of about 5 is achieved. The solution is concentrated to a volume of about 120 mL. The residue is purified with a 600 g, C-18 reverse phase column with 60 mL injections in a gradient. The gradient is 100% water (1 L), 9:1 water:MeOH (1 L), 8:2 water:MeOH (1 L), 7:3 water:MeOH (1 L), 1:1 water:MeOH. The desired product begins to elute after about 500 mL of 1:1 water:MeOH. The fractions are combined and concentrated. The residue is dissolved in water (40 mL) and solid potassium carbonate (approx. 3 g) is added until pH=8. The pH is adjusted to about 2 with 50% sulfuric acid resulting in the formation of a precipitate. The solid is collected, which contained approximately 10% TEA. The solid is suspended in water (50 mL), and the pH is adjusted to about 8 with solid potassium carbonate to produce a yellow solution. The resultant yellow solution is treated dropwise with 50% sulfuric acid until a pH of about 2 is reached, resulting in the precipitation of a solid. The solid is collected and slurried in water (75 mL). The solid is collected and dried giving 4 g, representing 12% of quercetin-3′-O-phosphate. […]

Question: For O=c1c(O)c(-c2ccc(O)c(OP(=O)(O)O)c2)oc2cc(O)cc(O)c12 [Quercetin-3′-O-phosphate], which antagonist activity (AdenosineA1) is on record?
Answer: The antagonist activity was 48%.

Question: What about the “inhibition in GTPγS functional assay” value (AdrenergicA2A) of the same molecule?
Answer: Its value is “marked negative inhibition”.

Question: And the “protective effect with respect to the kidneys” value (kidney of rats; co-administered with tacrolimus)?
Answer: Its value is “significant protective effect”.

Question: What about the “vacuolation of kidney tissue” value (kidney of rats; tacrolimus 0.5 mg/kg and Q-Phosphate at 11, 28 and 114 mg/kg, 25 days) of the same molecule?
Answer: The value was “no vacuoles”.

Question: And the “toxicity properties (findings of the toxicology screen)” value [1]?
Answer: The value was “low toxicity properties”.

Question: And the percent inhibition (Dopamine D47)?
Answer: Its percent inhibition is 51%.

Question: And the percent inhibition [2]?
Answer: Its percent inhibition is 53%.

Question: And the percent inhibition [3]?
Answer: Its percent inhibition is 68%.

Question: And the percent inhibition [4]?
Answer: Its percent inhibition is 65%.

Question: What about the “degradation seen by NMR” value [5] of the same molecule?
Answer: Its value is “no degradation”.

Question: What about the solubility [6] of the same molecule?
Answer: Its solubility is ≥ 80 mg/mL.
